Test results published in patent US11040083B2, “Polypeptides comprising vinculin binding sites for the treatment of proliferation and/or adhesion related diseases” (PARIS SCIENCES ET LETTRES—QUARTIER LATIN, priority 2015, dated 2021).
No end group written: not given here.

Experiments:
talin H1-H4 [1] = molecular target: T1, talin H1-H4 (Homo sapiens, UniProt Q9Y490); assay: Native-PAGE gel shift; format: binding
Protocol: Talin H1-H4 and IpaA peptides/proteins were incubated in binding buffer for 1 hour at 4° C. After incubation, the protein/peptides were mixed in a 2× Native loading buffer (62.5 mM Tris pH 6.8, Glycerol 25%) and separated by Tris-Glycine Native-PAGE electrophoresis. Gels were stained using standard colloidal Coomassie stain.
Talin H1-H4 and IpaA peptides/proteins at different molar ratios were incubated in binding buffer (25 mM Tris pH 7.4, 100 mM NaCl and 1 mM β-Mercaptoethanol) for 1 hour at 4° C. After incubation, the protein/peptides were mixed in a 2× Native loading buffer (62.5 mM Tris pH 6.8, Glycerol 25%) and separated by Tris-Glycine Native-PAGE electrophoresis. The Native PAGE electrophoresis gels were stained using standard colloidal Coomassie stain.

talin H1-H4 [2] = molecular target: T1, talin H1-H4; assay: Isothermal titration calorimetry; format: binding; settings: for N (stoichiometry): ITC non-linear fit; for N (stoichiometry) / ΔG free enthalpy / ΔH enthalpy / −TΔS entropic contribution: 25° C.
Protocol: Vinculin, IpaA proteins and peptides were extensively dialyzed in binding buffer (25 mM Tris pH 7.4, 100 mM NaCl and 1 mM β-Mercaptoethanol). The final concentration of all proteins/peptides was measured using a BCA test (Thermo Scientific). Talin-IpaA binding was measured by microcalorimetry using an ITC200 calorimeter (MicroCal) at 25° C. 200 μL of 20-100 μM of talin H1-H4 protein was added to the cell and binding in the presence of different concentrations of IpaA VBS1, VBS2 or VBS3 peptides was measured. In other experiments, 200 μL of a 16 μM equimolar mix of A483:HVD1 was incubated for one hour at room temperature prior to addition to the cell. Binding to talin H1-H4 (100 μM) was measured. Typically, 20-40 injections of 2 μL of ligand were made with intervals of 320 seconds between each addition, with a reference power of 12 μcal/sec. Data were analyzed using the MicroCal software provided by manufacturer.

[3] = Size exclusion chromatography, hydrodynamic radius; format: physicochemical
Protocol: The purified proteins HVD1, A483, A524 and Talin H1-H4 were used at an equimolar concentration of 20 μM and incubated at 4° C. for one hour in binding buffer. The protein mixtures (200 μL) were injected in a FPLC chromatography system (FPLC Pharmacia) at 16° C. in a Superdex 75 HR 10/30 column (GE Healthcare) previously equilibrated with 10 volumes of binding buffer. The SEC system was calibrated with a Low Molecular Weight Gel Filtration Kit (ref. 17-0442-01, GE Healthcare) and the hydrodynamic radius (Angstroms) of the reference proteins (BSA, OVA, ChyA and RibA) correlated with the elution volume (Ve) using an Euler exponential equation: Hydrodynamic radius (Ang)=210.46 e^−0.189 Ve (mL), with a correlation squared coefficient of R^2=0.9973. Fractions corresponding to elution volume 8-10 mLs were recovered, and analyzed by SDS-PAGE using 15% polyacrylamide gels.

T1 sequence (Q9Y490 482-636): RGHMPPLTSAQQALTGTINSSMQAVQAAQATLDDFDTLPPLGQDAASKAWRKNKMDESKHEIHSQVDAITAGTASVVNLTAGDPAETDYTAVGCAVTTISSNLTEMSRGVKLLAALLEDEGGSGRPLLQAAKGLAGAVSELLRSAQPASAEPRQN

With `CC[C@H](C)[C@H](NC(=O)[C@H](CC(C)C)NC(=O)[C@H](CO)NC(=O)[C@@H](NC(=O)[C@H](CC(C)C)NC(=O)[C@H](CC(N)=O)NC(=O)[C@H](CO)NC(=O)[C@H](CC(C)C)NC(=O)[C@H](CO)NC(=O)[C@H](CC(N)=O)NC(=O)[C@@H](NC(=O)[C@@H](NC(=O)[C@H](CCCCN)NC(=O)[C@H](CCCCN)NC(=O)[C@H](CO)NC(=O)[C@H](C)NC(=O)[C@H](CCC(=O)O)NC(=O)[C@H](Cc1ccccc1)NC(=O)[C@@H](NC(=O)[C@@H](NC(=O)[C@H](CCC(=O)O)NC(=O)[C@H](CCCNC(=N)N)NC(=O)[C@@H](N)[C@@H](C)O)[C@@H](C)O)[C@@H](C)CC)C(C)C)[C@@H](C)O)[C@@H](C)CC)C(=O)NCC(=O)N[C@H](C(=O)O)[C@@H](C)O` [IpaA VBS3] as the molecule, how does the “concentration at which the complex with talin H1-H4 / migration shift could be detected” value (talin H1-H4 [1]) read?
Its value is 25 µM.

What about the “N (stoichiometry)” value (talin H1-H4 [2]) of the same molecule?
The value was 0.893.

And the ΔG free enthalpy (talin H1-H4 [2]; ITC)?
The ΔG free enthalpy was -9.219 kcal/mol.

What about the ΔH enthalpy (talin H1-H4 [2]; ITC) of the same molecule?
Its ΔH enthalpy is -6.393 kcal/mol.

What about the “−TΔS entropic contribution” value (talin H1-H4 [2]; ITC) of the same molecule?
Its value is -2.826 kcal/mol.

What about the ΔG free enthalpy (talin H1-H4 [2]; ITC, listed as IpaA VBS3/TBS) of the same molecule?
Its ΔG free enthalpy is -9.07 ± 0.103 kcal/mol.

Which “formation of a complex with talin H1-H4” value (talin H1-H4 [1]) does the source give for “YTKKELIECARRVSEKVSHVLAALQA [talin H46, reference compound]” here?
The value was “formed a complex”.

What about the Kd (talin H1-H4 [2]) of the same molecule?
The Kd was 60 nM.

What about the ΔH enthalpy (talin H1-H4 [2]; ITC) of the same molecule?
The ΔH enthalpy was -16.97 kcal/mol.

What about the “−TΔS entropic contribution” value (talin H1-H4 [2]; ITC) of the same molecule?
The value was “+7200 cal/mol”.

What does the source list for `CC[C@H](C)[C@H](N)C(=O)N[C@@H](Cc1ccc(O)cc1)C(=O)N[C@@H](CCCCN)C(=O)N[C@@H](C)C(=O)N[C@@H](C)C(=O)N[C@@H](CCCCN)C(=O)N[C@@H](CC(=O)O)C(=O)N[C@H](C(=O)N[C@H](C(=O)N[C@H](C(=O)N[C@@H](CO)C(=O)N[C@@H](CC(C)C)C(=O)N[C@@H](CO)C(=O)N[C@@H](CCCCN)C(=O)N[C@H](C(=O)N[C@@H](CC(C)C)C(=O)N[C@@H](CCCCN)C(=O)N[C@@H](CC(N)=O)C(=O)N[C@H](C(=O)N[C@@H](CC(N)=O)C(=O)N[C@@H](CCCCN)C(=O)N[C@@H](CC(=O)O)C(=O)O)[C@@H](C)CC)C(C)C)[C@@H](C)O)[C@@H](C)O)C(C)C` [IpaA VBS1]?
formation of a complex with talin H1-H4 (talin H1-H4 [1]): did not induce the formation; N (stoichiometry) (talin H1-H4 [2]): 1.22; ΔG free enthalpy (talin H1-H4 [2]; ITC): -6.575 kcal/mol; ΔH enthalpy (talin H1-H4 [2]; ITC): -4.104 kcal/mol; −TΔS entropic contribution (talin H1-H4 [2]; ITC): -2.471 kcal/mol

For “IYEKAKEVSSALSKVLSKI (IpaA VBS2; listed as Shigella flexneri) [purified synthetic IpaA VBS peptide]”, which “formation of a complex with talin H1-H4” value (talin H1-H4 [1]) is on record?
The value was “did not induce the formation”.

What about the “interaction with talin H1-H4 by ITC” value (talin H1-H4 [2]; ITC) of the same molecule?
Its value is “did not show any interaction”.

B1: HVD1: vinculin derivative containing only amino acid residues 1 to 257 of HV (D1 domain) (protein, listed as Homo sapiens)
chain: MPVFHTRTIESILEPVAQQISHLVIMHEEGEVDGKAIPDLTAPVAAVQAAVSNLVRVGKETVQTTEDQILKRDMPPAFIKVENACTKLVQAAQMLQSDPYSVPARDYLIDGSRGILSGTSDLLLTFDEAEVRKIIRVCKGILEYLTVAEVVETMEDLVTYTKNLGPGMTKMAKMIDERQQELTHQEHRVMLVNSMNTVKELLPVLISAMKIFVTTKNSKNQGIEEALKNRNFTVEKMSAEINEIIRVLQLTSWDEDA
modifications: Vinculin domain D1 (HVD1)
With B1 as the molecule, how does the “Radiusg (hydrodynamic radius of a globular protein with the same MW)” value [3] read?
Its value is 24.36 Ang.

What about the “Radiusm/Radiusg (RH/RG ratio)” value [3] of the same molecule?
The value was 1.16.

What about the “Radiusm (estimated hydrodynamic radius)” value ([3]; SEC Superdex 75, 20 μM equimolar) of the same molecule?
The value was 28.25 Ang.
